Like-named read-outs stand apart in the source and are kept apart here.
Legend:
Hsp90α = Hsp90α (Homo sapiens (Human), UniProt P07900); assay: fluorescence polarization (FP) assay, competitive displacement of FITC labeled Geldanamycin; type: binding
Experimental: (§1) Once prepared, the compounds were evaluated for their binding affinities against the cytosolic isoforms, Hsp90α and Hsp90β by measuring their ability to competitively displace FITC labeled Geldanamycin (GDA) in a fluorescence polarization assay (apparent Kd's listed in Table 1). […] The alkyne (4k) was investigated to determine whether a linear substituent could project into the subpocket and affect selectivity.

Hsp90β [1] = target: T1, Hsp90β (Homo sapiens (Human), UniProt P08238); assay: as above; type: binding
Experimental: as §1

Trap-1 = Trap-1 (Homo sapiens (Human), UniProt Q12931); assay: binding affinity towards Trap-1
Grp94 = Grp94 (Homo sapiens (Human), UniProt P14625); assay: binding affinity towards Grp94
[2] = system: Hsp90 client proteins in UM-UC-3 cells; assay: western blot analysis of client proteins in UM-UC-3 cells; type: cell-based; conditions: 24-hour incubation
Experimental: Since Hsp90 inhibition induces the degradation of Hsp90-dependent substrates via the ubiquitin-proteosome pathway, the levels of both kinase and non-kinase Hsp90 clients were assessed via western blot analysis. […]. […] […]. Survivin, which is an Hsp90α dependent substrate was not affected, providing direct evidence for isoform-selective inhibition in a cellular context.

HT29 cells = assay: cells; conditions: Homo sapiens, HT-29
other colon cancer cells = assay: cells
[3] = system: UM-UC-3 bladder cancer cells; assay: cells; conditions: Homo sapiens, UMUC3
[4] = system: PC3-MM2 prostate cancer cells; assay: cells; conditions: Homo sapiens, PC3MM2
[5] = system: LNCap-LN3 prostate cancer cells; assay: cells
[6] = system: C4-2b prostate cancer cells; assay: cells
[7] = system: LAPC4 prostate cancer cells; assay: cells; conditions: Homo sapiens
prostate cancer cells = assay: cells; conditions: read-out: efficacy against prostate cancer cells
T24 bladder cancer cells = assay: tissue or blood
Hsp90β [8] = target: T1, Hsp90β; conditions: previously reported inhibitors; cited from earlier work
[9] = apparent Kd, FP assay, read-out: Hsp90α Kd
[10] = apparent Kd, FP assay, read-out: Hsp90β Kd

T1 sequence (P08238 whole entry): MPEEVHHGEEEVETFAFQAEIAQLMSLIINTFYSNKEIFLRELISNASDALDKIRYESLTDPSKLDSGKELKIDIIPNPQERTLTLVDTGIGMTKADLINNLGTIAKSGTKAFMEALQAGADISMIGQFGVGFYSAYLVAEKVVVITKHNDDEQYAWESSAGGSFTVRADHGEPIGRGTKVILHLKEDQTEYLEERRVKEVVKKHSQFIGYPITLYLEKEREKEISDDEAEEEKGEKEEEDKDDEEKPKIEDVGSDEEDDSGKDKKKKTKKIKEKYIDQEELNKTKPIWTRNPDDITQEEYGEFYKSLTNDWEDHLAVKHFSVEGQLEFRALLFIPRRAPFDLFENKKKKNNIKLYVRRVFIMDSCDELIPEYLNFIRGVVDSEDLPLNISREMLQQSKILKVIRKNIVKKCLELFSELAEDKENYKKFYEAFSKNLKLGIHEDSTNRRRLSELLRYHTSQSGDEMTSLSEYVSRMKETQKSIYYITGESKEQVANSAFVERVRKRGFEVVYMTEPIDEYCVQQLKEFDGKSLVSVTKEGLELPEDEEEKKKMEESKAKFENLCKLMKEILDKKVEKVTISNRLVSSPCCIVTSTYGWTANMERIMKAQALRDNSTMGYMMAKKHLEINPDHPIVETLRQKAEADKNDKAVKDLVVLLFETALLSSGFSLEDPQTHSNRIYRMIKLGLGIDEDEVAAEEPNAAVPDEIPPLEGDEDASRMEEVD
Sequence of Trap-1 (Q12931 60-704): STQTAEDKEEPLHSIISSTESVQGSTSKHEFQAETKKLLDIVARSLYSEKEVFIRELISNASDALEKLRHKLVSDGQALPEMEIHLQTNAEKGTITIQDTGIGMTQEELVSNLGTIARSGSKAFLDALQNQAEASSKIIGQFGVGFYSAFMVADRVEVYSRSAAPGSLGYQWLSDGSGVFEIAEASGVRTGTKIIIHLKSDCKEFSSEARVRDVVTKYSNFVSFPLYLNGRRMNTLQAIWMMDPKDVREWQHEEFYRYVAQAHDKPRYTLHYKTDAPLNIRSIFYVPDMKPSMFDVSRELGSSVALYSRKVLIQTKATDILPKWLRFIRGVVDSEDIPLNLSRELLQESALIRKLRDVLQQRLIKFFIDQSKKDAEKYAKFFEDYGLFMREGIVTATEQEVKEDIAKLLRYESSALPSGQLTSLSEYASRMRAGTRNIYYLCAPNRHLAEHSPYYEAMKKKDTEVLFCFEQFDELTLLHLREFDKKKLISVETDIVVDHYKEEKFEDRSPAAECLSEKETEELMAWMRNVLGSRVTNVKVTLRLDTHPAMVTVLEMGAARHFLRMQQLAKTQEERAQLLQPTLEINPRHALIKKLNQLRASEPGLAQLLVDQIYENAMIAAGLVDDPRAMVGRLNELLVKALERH
Sequence of Grp94 (P14625 22-803, species assumed): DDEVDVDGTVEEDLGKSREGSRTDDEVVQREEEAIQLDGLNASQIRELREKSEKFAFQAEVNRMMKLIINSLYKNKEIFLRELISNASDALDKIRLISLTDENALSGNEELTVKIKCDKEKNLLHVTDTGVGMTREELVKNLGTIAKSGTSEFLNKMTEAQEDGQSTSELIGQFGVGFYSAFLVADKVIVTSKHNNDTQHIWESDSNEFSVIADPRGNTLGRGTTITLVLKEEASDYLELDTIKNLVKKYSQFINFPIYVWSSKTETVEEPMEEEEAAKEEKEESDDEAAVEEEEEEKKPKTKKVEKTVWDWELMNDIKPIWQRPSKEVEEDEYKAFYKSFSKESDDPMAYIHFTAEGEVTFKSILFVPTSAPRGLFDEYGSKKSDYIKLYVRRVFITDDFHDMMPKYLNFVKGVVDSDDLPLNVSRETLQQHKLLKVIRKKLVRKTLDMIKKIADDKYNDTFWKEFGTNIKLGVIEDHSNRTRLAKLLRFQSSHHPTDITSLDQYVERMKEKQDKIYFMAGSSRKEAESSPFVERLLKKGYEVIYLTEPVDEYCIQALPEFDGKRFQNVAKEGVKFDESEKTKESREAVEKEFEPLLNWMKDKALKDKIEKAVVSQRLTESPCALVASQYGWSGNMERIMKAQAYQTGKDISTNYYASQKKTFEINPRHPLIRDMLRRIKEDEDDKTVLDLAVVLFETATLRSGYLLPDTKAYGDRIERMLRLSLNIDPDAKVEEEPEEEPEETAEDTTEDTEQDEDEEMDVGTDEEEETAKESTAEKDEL

SMILES	Kd (Hsp90α; [9]) [nM]	Kd (Hsp90β [1]; [10]) [nM]	selectivity for Hsp90β over Hsp90α (in words) (Hsp90β [1]; FP assay)	also measured
Cc1cc2cc(-n3nc(C)c4c3CC(C)(C)CC4=O)cc(N[C@H]3CC[C@H](O)CC3)c2c(=O)[nH]1 [Compound 4a, 8-(((1r,4r)-4-hydroxycyclohexyl)amino)-3-methyl-6-(3,6,6-trimethyl-4-oxo-4,5,6,7-tetrahydro-1H-indazol-1-yl)isoquinolin-1(2H)-one]	294 ± 23	101 ± 3	–	selectivity for Hsp90β over Hsp90α (Hsp90β [1]): 3 fold
CCc1cc2cc(-n3nc(C)c4c3CC(C)(C)CC4=O)cc(N[C@H]3CC[C@H](O)CC3)c2c(=O)[nH]1 [Compound 4b, 3-ethyl-8-(((1r,4r)-4-hydroxycyclohexyl)amino)-6-(3,6,6-trimethyl-4-oxo-4,5,6,7-tetrahydro-1H-indazol-1-yl)isoquinolin-1(2H)-one]	180 ± 36	68 ± 8	–	–
Cc1nn(-c2cc(N[C@H]3CC[C@H](O)CC3)c3c(=O)[nH]c(C(C)C)cc3c2)c2c1C(=O)CC(C)(C)C2 [Compound 4c, 8-(((1r,4r)-4-hydroxycyclohexyl)amino)-3-isopropyl-6-(3,6,6-trimethyl-4-oxo-4,5,6,7-tetrahydro-1H-indazol-1-yl)isoquinolin-1(2H)-one]	173 ± 36	51 ± 8	–	–
CCCc1cc2cc(-n3nc(C)c4c3CC(C)(C)CC4=O)cc(N[C@H]3CC[C@H](O)CC3)c2c(=O)[nH]1 [Compound 4d, 8-(((1r,4r)-4-hydroxycyclohexyl)amino)-3-propyl-6-(3,6,6-trimethyl-4-oxo-4,5,6,7-tetrahydro-1H-indazol-1-yl)isoquinolin-1(2H)-one]	–	–	–	Kd (Trap-1): > 5000 nM; Kd (Grp94): > 5000 nM; CXCR4 and B-raf levels (Hsp90β-dependent clients) [2]: marked dose-dependent reduction; FGFR3 level [2]: marked dose-dependent reduction; Hsp27 and Hsf-1 levels (heat shock related proteins) [2]: declined upon increasing doses; Survivin level (Hsp90α dependent substrate) [2]: not affected; GI50 (HT29 cells): 26 nM; GI50 (other colon cancer cells): 50 to 80 nM; GI50 [3]: 508 nM; GI50 [4]: 1240 nM; GI50 [5]: 1180 nM; GI50 [6]: 1030 nM; GI50 [7]: 2560 nM; IC50 (prostate cancer cells): 1000 to 2500 nM; GI50 (T24 bladder cancer cells): 197 nM
CCCCc1cc2cc(-n3nc(C)c4c3CC(C)(C)CC4=O)cc(N[C@H]3CC[C@H](O)CC3)c2c(=O)[nH]1 [Compound 4e, 3-butyl-8-(((1r,4r)-4-hydroxycyclohexyl)amino)-6-(3,6,6-trimethyl-4-oxo-4,5,6,7-tetrahydro-1H-indazol-1-yl)isoquinolin-1(2H)-one]	> 50000	156 ± 18	–	binding to Hsp90α (in words) (Hsp90α; FP assay): did not bind; Kd (Hsp90β [1]): 186 nM; selectivity for Hsp90β over Hsp90α (Hsp90β [1]): > 300 fold; affinity for Hsp90β (in words) (Hsp90β [1]; FP assay): did not bind
Cc1nn(-c2cc(N[C@H]3CC[C@H](O)CC3)c3c(=O)[nH]c(C(C)(C)C)cc3c2)c2c1C(=O)CC(C)(C)C2 [Compound 4f, 3-(tert-butyl)-8-(((1r,4r)-4-hydroxycyclohexyl)amino)-6-(3,6,6-trimethyl-4-oxo-4,5,6,7-tetrahydro-1H-indazol-1-yl)isoquinolin-1(2H)-one]	> 50000	> 50000	–	–
Cc1nn(-c2cc(N[C@H]3CC[C@H](O)CC3)c3c(=O)[nH]c(CC(C)C)cc3c2)c2c1C(=O)CC(C)(C)C2 [Compound 4g, 8-(((1r,4r)-4-hydroxycyclohexyl)amino)-3-isobutyl-6-(3,6,6-trimethyl-4-oxo-4,5,6,7-tetrahydro-1H-indazol-1-yl)isoquinolin-1(2H)-one]	> 50000	264 ± 30	maintained selectivity	affinity for Hsp90β (in words) (Hsp90β [1]; FP assay): decrease in affinity
Cc1nn(-c2cc(N[C@H]3CC[C@H](O)CC3)c3c(=O)[nH]c(C4CC4)cc3c2)c2c1C(=O)CC(C)(C)C2 [Compound 4h, 3-cyclopropyl-8-(((1r,4r)-4-hydroxycyclohexyl)amino)-6-(3,6,6-trimethyl-4-oxo-4,5,6,7-tetrahydro-1H-indazol-1-yl)isoquinolin-1(2H)-one]	1880 ± 280	946 ± 38	–	affinity for Hsp90β (in words) (Hsp90β [1]; FP assay): loss of potency
COCc1cc2cc(-n3nc(C)c4c3CC(C)(C)CC4=O)cc(N[C@H]3CC[C@H](O)CC3)c2c(=O)[nH]1 [Compound 4i, 8-(((1r,4r)-4-hydroxycyclohexyl)amino)-3-(methoxymethyl)-6-(3,6,6-trimethyl-4-oxo-4,5,6,7-tetrahydro-1H-indazol-1-yl)isoquinolin-1(2H)-one]	306 ± 23	159 ± 3	loss of selectivity	–
Cc1nn(-c2cc(N[C@H]3CC[C@H](O)CC3)c3c(=O)[nH]c(CO)cc3c2)c2c1C(=O)CC(C)(C)C2 [Compound 4j, 8-(((1r,4r)-4-hydroxycyclohexyl)amino)-3-(hydroxymethyl)-6-(3,6,6-trimethyl-4-oxo-4,5,6,7-tetrahydro-1H-indazol-1-yl)isoquinolin-1(2H)-one]	824 ± 104	233 ± 18	loss of selectivity	–
C#Cc1cc2cc(-n3nc(C)c4c3CC(C)(C)CC4=O)cc(N[C@H]3CC[C@H](O)CC3)c2c(=O)[nH]1 [Compound 4k, 3-ethynyl-8-(((1r,4r)-4-hydroxycyclohexyl)amino)-6-(3,6,6-trimethyl-4-oxo-4,5,6,7-tetrahydro-1H-indazol-1-yl)isoquinolin-1(2H)-one]	381 ± 3	337 ± 15	without discrimination	–
CCCc1cc2cc(-n3nc(C)c4c3CC(C)(C)CC4=O)cc(N3CCOCC3)c2c(=O)[nH]1 [Compound 5a, 8-morpholino-3-propyl-6-(3,6,6-trimethyl-4-oxo-4,5,6,7-tetrahydro-1H-indazol-1-yl)isoquinolin-1(2H)-one]	> 50000	121 ± 17	excellent selectivity	Kd (Hsp90β [1]; read-out: Kd for Hsp90β): ~121 nM
CCCc1cc2cc(-n3nc(C)c4c3CC(C)(C)CC4=O)cc(N3CCN(C)CC3)c2c(=O)[nH]1 [Compound 5c, 8-(4-methylpiperazin-1-yl)-3-propyl-6-(3,6,6-trimethyl-4-oxo-4,5,6,7-tetrahydro-1Hindazol-1-yl)isoquinolin-1(2H)-one]	8520 ± 240	426 ± 53	decrease in affinity and selectivity	affinity for Hsp90β (in words) (Hsp90β [1]; FP assay): decrease in affinity
CCCc1cc2cc(-n3nc(C)c4c3CC(C)(C)CC4=O)cc(N3CCNCC3)c2c(=O)[nH]1 [Compound 5d, 8-(piperazin-1-yl)-3-propyl-6-(3,6,6-trimethyl-4-oxo-4,5,6,7-tetrahydro-1H-indazol-1-yl)isoquinolin-1(2H)-one]	> 50000	4470 ± 278	–	–
CCCc1cc2cc(-n3nc(C)c4c3CC(C)(C)CC4=O)cc(N3CCN(C(=O)OC(C)(C)C)CC3)c2c(=O)[nH]1 [Compound 5e, tert-butyl 4-(1-oxo-3-propyl-6-(3,6,6-trimethyl-4-oxo-4,5,6,7-tetrahydro-1H-indazol-1-yl)-1,2-dihydroisoquinolin-8-yl)piperazine-1-carboxylate]	–	–	–	Kd (Hsp90α): > 50000 nM; Kd (Hsp90β [1]): 463 ± 31 nM
CCCc1cc2cc(-n3nc(C)c4c3CC(C)(C)CC4=O)cc(NC3CCN(C)CC3)c2c(=O)[nH]1 [Compound 5f, 8-((1-methylpiperidin-4-yl)amino)-3-propyl-6-(3,6,6-trimethyl-4-oxo-4,5,6,7-tetrahydro-1Hindazol-1-yl)isoquinolin-1(2H)-one]	17100 ± 660	513 ± 67	–	–
CCCc1cc2cc(-n3nc(C)c4c3CC(C)(C)CC4=O)cc(N(C)CCN(CC)CC)c2c(=O)[nH]1 [Compound 5g, 8-((2-(diethylamino)ethyl)(methyl)amino)-3-propyl-6-(3,6,6-trimethyl-4-oxo-4,5,6,7-tetrahydro-1H-indazol-1-yl)isoquinolin-1(2H)-one]	> 50000	4460 ± 188	–	–
CCCC1Cc2cc(-n3nc(C)c4c3CC(C)(C)CC4=O)cc(N3CCC(O)CC3)c2C(=O)N1 (centres unmarked) [Compound 6b, 8-(4-hydroxypiperidin-1-yl)-3-propyl-6-(3,6,6-trimethyl-4-oxo-4,5,6,7-tetrahydro-1Hindazol-1-yl)-3,4-dihydroisoquinolin-1(2H)-one]	–	–	lost both selectivity and affinity	affinity for Hsp90β (in words) (Hsp90β [1]; FP assay): lost both selectivity and affinity
CC1(C)CC(=O)c2c(C(F)(F)F)nn(-c3ccc(C(N)=O)c(N[C@H]4CC[C@H](O)CC4)c3)c2C1 [SNX 2112]	–	–	–	Hsp90α/Hsp90β isoform profile (in words) (Hsp90β [8]): equipotent affinity

From US12030867B2, “Hsp90β selective inhibitors” (University of Notre Dame du Lac, priority 2018, dated 2024)
